These are literature values, as cited in patent US20230149366A1, “SOLID DOSAGE FORMS OF TAFAMIDIS” (Nuray Chemicals Private Limited, priority 2021, published 2023).

For the data set the following is noted: Vyndaqel European Public assessment report.

With `O=C(O)c1ccc2nc(-c3cc(Cl)cc(Cl)c3)oc2c1` [tafamidis, 2-(3,5-dichlorophenyl)-1,3-benzoxazole-6-carboxylic acid], the “Solubility in vehicles commonly used in formulating soft gelatin capsules” value was “poor solubility”. Further, for the setting “upon contact with aqueous vehicles”, the “Gel formation in hard gelatin capsule with standard excipients” value is “formed a rigid gel structure”.
